# From BindingDB's records for doi:10.1016/0024-3205(85)90028-1 (Universit&Eacute, 1985)
# Counter-ions that a name gives are not always drawn.
# Target: D(1A) dopamine receptor (Rattus norvegicus, UniProt P18901)
# Sequence (P18901 whole entry): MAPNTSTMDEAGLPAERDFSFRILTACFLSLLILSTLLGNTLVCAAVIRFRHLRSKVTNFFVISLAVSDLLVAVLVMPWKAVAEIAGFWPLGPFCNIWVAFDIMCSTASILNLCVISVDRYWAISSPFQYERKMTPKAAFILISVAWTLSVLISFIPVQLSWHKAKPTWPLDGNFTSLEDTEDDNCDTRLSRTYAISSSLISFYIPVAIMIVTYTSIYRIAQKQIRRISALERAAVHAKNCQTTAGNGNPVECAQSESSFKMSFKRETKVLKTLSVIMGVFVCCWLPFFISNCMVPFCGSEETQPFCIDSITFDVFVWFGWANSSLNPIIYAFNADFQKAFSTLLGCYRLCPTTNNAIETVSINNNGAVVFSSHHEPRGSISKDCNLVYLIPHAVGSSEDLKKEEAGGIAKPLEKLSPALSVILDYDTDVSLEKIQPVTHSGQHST
row,SMILES,Ki [nM]
1,O=c1[nH]c2ccccc2n1CCCN1CCC(n2c(=O)[nH]c3cc(Cl)ccc32)CC1,> 10000
2,NC1CCc2cc(O)c(O)cc2C1 (stereo not given),5120
3,"O=c1[nH]c2ccccc2n1C1CCN(CCCC(c2ccc(F)cc2)c2ccc(F)cc2)CC1 [1-(1-(4,4-bis(4-fluorophenyl)butyl)piperidin-4-yl)-1H-benzo[d]imidazol-2(3H)-one]",1420
4,OCCN1CCN(CCCN2c3ccccc3Sc3ccc(C(F)(F)F)cc32)CC1 [2-[4-[3-[2-(trifluoromethyl)phenothiazin-10-yl]propyl]piperazin-1-yl]ethanol;hydrochloride],4.5
5,"O=C(c1ccc(F)cc1)C1CCN(CCn2c(=O)[nH]c3ccccc3c2=O)CC1 [3-(2-{4-[(4-fluorophenyl)carbonyl]piperidin-1-yl}ethyl)-1,2,3,4-tetrahydroquinazoline-2,4-dione]",200
6,OCCN1CCN(CCCN2c3ccccc3Sc3ccc(Cl)cc32)CC1 [4-[3-(2-chlorophenothiazin-10-yl)propyl]-1-piperazineethanol],44
7,CN1CCN(CC/C=C2/c3ccccc3Sc3ccc(S(=O)(=O)N(C)C)cc32)CC1 [MLS000028463],1520
8,"CC(CN1c2ccccc2Sc2ccccc21)N(C)C (stereo not drawn) [N,N,alpha-trimethyl-10H-phenothiazine-10-ethanamine]",1780
9,NCCc1c[nH]c2ccc(O)cc12 [[3H]-5-HT],5000
10,c1ccc2c(c1)Nc1ccccc1S2 [phenothiazine],> 10000
